We go through 6 compounds from patent publication EP3833345B1, “SMALL MOLECULE-INHIBITORS OF 6-PHOSPHOFRUCTO-1-KINASE FOR REDUCING LACTATE GENERATION BY CANCER CELLS” (Kemijski Institut, priority 2018, dated 2020).

The structures appear in SMILES notation.

The test system of one series is Jurkat cells. As to the kind of experiment: lactate excretion by Jurkat cells (enzymatic L-lactic acid kit). In kind it is cell-based, human. Particulars: preliminary test, 100 µM inhibitor, followed for 48 hours, versus DMSO control. As to the method: The cells were incubated in 1 mL volume (24 well plates) at 5% CO2 and 37°C. The inhibitors were added in 100 µM concentration. As a control, equivalent amount of DMSO as used for the addition of inhibitors was supplemented to the medium. The tests started with 1×10^5 cells per mL. Extracellular lactate excreted by the Jurkat cells was measured in the supernatant of the growth medium after the cells were removed by centrifugation at 1500 rpm for 5 minutes. Lactate concentration was determined enzymatically using L-Lactatic acid kit (K-LATE, Megazyme, Ireland).
Measurements of lactate excretion in the tumorigenic Jurkat cells and the cells treated with two selected inhibitors at different concentrations were repeated by more detailed measurements. The growth conditions were identical to those described in Experiment 2. No significant difference in lactate excretion could be observed by the treated and untreated cells during the initial stage of growth that lasted for approximately 12 hours. Later on lactate excretion by the Jurkat cells ceased in the presence of both inhibitors.

Series [1] addresses T1, modified (47 kDa) 6-phosphofructo-1-kinase (PFK-M), sfPFK-M fragments (Homo sapiens, UniProt P08237).
T1 sequence (P08237 1-443 limits assumed): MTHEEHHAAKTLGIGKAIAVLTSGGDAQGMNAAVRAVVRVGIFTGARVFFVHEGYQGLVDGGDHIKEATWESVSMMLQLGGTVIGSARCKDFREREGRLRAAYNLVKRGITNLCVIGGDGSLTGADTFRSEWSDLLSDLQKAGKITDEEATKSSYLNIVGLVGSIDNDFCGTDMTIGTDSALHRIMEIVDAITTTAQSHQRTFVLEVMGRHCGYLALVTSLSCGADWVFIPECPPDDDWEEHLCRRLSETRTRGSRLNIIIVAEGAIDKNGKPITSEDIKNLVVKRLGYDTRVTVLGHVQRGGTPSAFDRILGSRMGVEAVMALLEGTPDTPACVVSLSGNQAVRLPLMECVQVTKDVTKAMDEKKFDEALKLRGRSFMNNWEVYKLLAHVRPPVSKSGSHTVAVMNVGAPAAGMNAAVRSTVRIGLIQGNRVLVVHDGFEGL
As to the kind of experiment: in vitro inhibition of purified recombinant modified (cancer-specific) PFK-M fragments. Particulars: native and modified PFK-M not distinguished.
Experimental: Initially, all compounds were tested in vitro for inhibition of the purified human native enzyme (85 kDa) and modified cancer-specific shorter fragments (47 kDa) of muscle type PFK-M, followed by measurements of the purified native enzyme (85 kDa) and shorter fragments (70 kDa) of liver type PFK-L isoform.
Selected compounds were tested for in vitro inhibition of isolated recombinant human native and modified PFK-M enzymes.
The yeast transformant encoding the native human PFK-M enzyme was designated as nPFKM strain while transformant encoding cancer specific shorter fragments was designated as sfPFKM strain. […] For the enzymatic measurements, all the substrates (F6P and ATP), auxiliary enzymes, NADH and inhibitors dissolved in DMSO were added first to the buffer with PEG. After thorough mixing of the buffer with all ingredients, the enzymatic reaction started by the insertion of the purified recombinant enzymes.

Series [2] concerns Caco-2 cells. In words: lactate excretion by Caco-2 cells. The note with it: single addition. In kind it is cell-based. The protocol:
Preliminary in vivo tests were run by measuring lactate production by three different tumorigenic cell lines. […] For the experiment, the following tumorigenic cells lines originating from different tumours were tested: Caco-2 cells (Figure 10a), originating from colorectal adenoma carcinoma; COLO 829 cells (Figure 10b), isolated from melanoma; and MDA-MB-231 cells (Figure 10c) derived from metastatic phase of mammary/breast cancer.
(§1) Lactate generation, growth yield and survival under normal and inhibitory conditions of three different tumorigenic cells lines were determined in more detailed measurements. […] Cytotoxicity was measured by the Lactate dehydrogenase (LDH) kit (Roche).
Therefore, the influence of selected inhibitors was assessed by sequential re-insertion of low concentrations of inhibitors at indicated time points. The inhibitors were first added to the medium 8 hours after the inoculation followed by periodically additions at 24-hour intervals (marked by arrows).

The subject of series [3] is Caco-2 cells. As to the kind of experiment: cytotoxicity in Caco-2 cells (lactate dehydrogenase (LDH) kit). In kind it is cell-based. As to the method: as §1
The subject of series [4] is MDA-MB-231 cells. As to the kind of experiment: lactate excretion by MDA-MB-231 cells. The format is cell-based. The note with it: single addition; for lactate excretion by MDA-MB-231 cells: different concentrations. As to the method: (§2) Preliminary in vivo tests were run by measuring lactate production by three different tumorigenic cell lines. Again, 100 µM concentrations of tested compounds have been added to the medium. For the experiment, the following tumorigenic cells lines originating from different tumours were tested: Caco-2 cells (Figure 10a), originating from colorectal adenoma carcinoma; COLO 829 cells (Figure 10b), isolated from melanoma; and MDA-MB-231 cells (Figure 10c) derived from metastatic phase of mammary/breast cancer. All adherent cell lines were grown in the RPMI 1640 GlutaMAX substrate (Thermo Fisher) supplemented with 10% FBS.
Inhibitors No. 23, 29, 30 and 31 were tested for preventing lactate generation by the MDA-MB-231 cells. […] No significant discrepancies of total cell numbers were observed (Figure 14e) due to the different concentrations of inhibitors in the medium. […] The average percent of dead MDA-MB-231 cells in the control and in the presence of different concentrations of inhibitors were as follows: inh. 23 (2,98±0,2%), inh. 29 (3,37±0,39%), inh. 30 (3,4±0,21%), inh. 31 (6,87±0,44%). Additionally, cytotoxicity of inh. 3 (7,2±0,47%) and 9 (6,59±0,29%) for MDA-MB-231 cells were also determined. No dose dependent decrease of survival was observed by any inhibitor.
(§3) A decrease in inhibitory effectiveness of some compounds was observed after certain period of time (Example 11). […] Therefore, the influence of selected inhibitors was assessed by sequential re-insertion of low concentrations of inhibitors at indicated time points. The inhibitors were first added to the medium 8 hours after the inoculation followed by periodically additions at 24-hour intervals (marked by arrows).
In MDA-MB-231 calls similar results to those found in Caco-2 cells were observed. […] No significant cytostatic (Figure 17f) or cytotoxic effect of inhibitors could be detected after 92 hours of incubation despite of sequential addition of various concentrations of inhibitors. The following average percentages of dead cells were perceived in the medium without and with inh. 3 (2,05±0,18%), inh. 9 (1,85±0,05%), inh. 23 (2,20±0,15%), inh. 29 (1,54±0,16%) and inh. 30 (2,00±0,18%). No detrimental effects of increased inhibitors concentrations on cell deaths have been observed.

Series [5] deals with COLO 829 cells. In words: lactate excretion by COLO 829 cells. The note with it: for lactate excretion by COLO 829 cells: single addition, different concentrations. In kind it is cell-based. The protocol:
as §2
On the basis of preliminary results, inhibitors No. 23, 29, 30 and 31 were tested on COLO 829 cells. […] No significant discrepancies of total cell numbers in respect to the control were observed due to the different concentrations of inhibitors in the medium (Figure 13e). The average percent of dead COLO 829 cells in the control and in the presence of different concentrations of inhibitors were as follows: inh. 23 (9,23±0,6%), inh. 29 (9,31±0,73%), inh. 30 (8,27±0,49%), inh. 31 (8,26±0,38%). Additionally, cytotoxicity of inh. 3 (5,01±1,08%) and 9 (3,65±0,78%) for COLO 829 cells were also determined. No dose dependent decrease of survival was observed by any inhibitor.
as §3
No significant cytostatic (Figure 16f) of cytotoxic effect of inhibitors could be detected after 92 hours of incubation despite of sequential addition of various concentrations of inhibitors. The following average percentages of dead cells were perceived in the medium without and media with inh. 3 (1,95±0,15%) inh. 9 (1,70±0,14%), inh. 23 (2,40±0,09%), inh. 29 (1,66±0,25%) and inh. 30 (1,38±0,18%). No detrimental effects of increased inhibitors concentrations on cell deaths have been observed.

The subject of series [6] is MDA-MB-231 cells. As to the kind of experiment: cytotoxicity in MDA-MB-231 cells (LDH kit). The format is cell-based. Particulars: for average percent of dead MDA-MB-231 cells: single addition, average over control and different concentrations of inhibitor. As to the method: as §1
Inhibitors No. 23, 29, 30 and 31 were tested for preventing lactate generation by the MDA-MB-231 cells.

The test system of series [7] is COLO 829 cells. As to the kind of experiment: cytotoxicity in COLO 829 cells (LDH kit). The format is cell-based. The note with it: for average percent of dead COLO 829 cells: single addition, average over control and different concentrations of inhibitor. As to the method:
as §1

[8] abbreviates: sequential addition at 24-hour intervals, 92 hours, average over medium without and with inhibitor.

`CNC(=O)c1nc(CN2CCc3onc(-c4cccc(F)c4)c3C2)no1` [Inhibitor No. 11, 3-{[3-(3-fluorophenyl)-6,7-dihydroisoxazolo[4,5-c]pyridin-5(4H)-yl]methyl}-N-methyl-1,2,4-oxadiazole-5-carboxamide]: the “lactate excretion by the Jurkat cells” value in the series on Jurkat cells is “Less efficient reduction of lactate overflow”. The “in vitro PFK-M inhibition” value in series [1] is listed as “no in vitro PFK-M inhibition could be detected”.
Take `CNC(=O)c1nc(CN2CCc3onc(-c4ccccc4F)c3C2)no1` [Inhibitor No. 13, 3-{[3-(2-fluorophenyl)-6,7-dihydroisoxazolo[4,5-c]pyridin-5(4H)-yl]methyl}-N-methyl-1,2,4-oxadiazole-5-carboxamide]: in the series with Jurkat cells, the “lactate excretion by the Jurkat cells” value is “Less efficient reduction of lactate overflow”. Besides, the “in vitro PFK-M inhibition” value in series [1] is “no in vitro PFK-M inhibition could be detected”.
For `Cc1nnc(COC(=O)c2ccc3noc(-c4ccccc4)c3c2)o1` [Inhibitor No. 8, (5-methyl-1 ,3,4-oxadiazol-2-yl)methyl 3-phenyl-2,1-benzoxazole-5-carboxylate], the “lactate excretion by the Jurkat cells” value in the series with Jurkat cells is listed as “Less efficient reduction of lactate overflow”. Besides, in series [1], the “in vitro PFK-M inhibition” value was “no in vitro PFK-M inhibition could be detected”.
Turning to `CS(=O)(=O)Nc1nnc(NC(=O)c2ccc3[nH]c4c(c3c2)CCCC4)s1` [Inhibitor No. 23, N-[5-(methanesulfonamido)-1,3,4-thiadiazol-2-yl]-6,7,8,9-tetrahydro-5H-carbazole-3-carboxamide], the “period of strong inhibition of lactate generation, Caco-2” value in the series with Caco-2 cells [2] (20-80 µM, later the inhibitory effect was lost) was 36 h. In addition, in the series with Caco-2 cells [2] (different concentrations (20-80 µM)), the “lactate generation by Caco-2 cells” value is on record as “strong inhibition of lactate generation”. For the same compound, the “average percentages of dead cells, Caco-2, sequential re-insertion” value in the series on Caco-2 cells [3] (setting [8]) is 4,05±0,54%. For the same compound, the “average percent of dead cells, Caco-2” value in the series with Caco-2 cells [3] (single addition, average over control and different concentrations of inhibitor) is listed as 3,35±0,08%. In addition, in the series with MDA-MB-231 cells [4], the “lactate excretion by MDA-MB-231 cells” value was “strong inhibition”. Besides, the “period of strong inhibition of lactate generation, MDA-MB-231” value with MDA-MB-231 cells [4] (later on lactate generation re-appeared) was 42 h. Further, the “concentration at which comprehensive inhibition of lactate formation was detected, COLO 829” value with COLO 829 cells [5] (sequential re-insertion at 24-hour intervals) is at least 20 µM. The “lactate excretion by COLO 829 cells” value in the series on COLO 829 cells [5] is listed as “Slightly weaker inhibition”. In addition, in the series with MDA-MB-231 cells [6] (setting [8]), the “average percentages of dead cells, MDA-MB-231, sequential re-insertion” value is on record as 2,20±0,15%. The “average percent of dead MDA-MB-231 cells” value in the series with MDA-MB-231 cells [6] is listed as 2,98±0,2%. Further, in the series on COLO 829 cells [7] (setting [8]), the “average percentages of dead cells, COLO 829, sequential re-insertion” value is 2,40±0,09%. Also, the “average percent of dead COLO 829 cells” value with COLO 829 cells [7] is listed as 9,23±0,6%.
`Cc1ccc(-c2cccc(-c3ccn(Cc4nnc(C)o4)n3)c2)nn1` [Inhibitor No. 14]: the “lactate excretion by the Jurkat cells” value with Jurkat cells is recorded as “Less efficient reduction of lactate overflow”. In addition, the “in vitro PFK-M inhibition” value in series [1] was “no in vitro PFK-M inhibition could be detected”.
For `O=C(Nc1nnc(-c2ccno2)o1)[C@H]1COc2ccccc2O1` [Inhibitor No. 31, (2R)-N-(5-isoxazol-5-yl-1,3,4-oxadiazol-2-yl)-2,3-dihydro-1,4-benzodioxine-2-carboxamide], the “lactate excretion by MDA-MB-231 cells” value in the series with MDA-MB-231 cells [4] was “dose dependent inhibition of lactate excretion”. Moreover, in the series with COLO 829 cells [5], the “lactate excretion by COLO 829 cells” value is reported as “some inhibition”. For the same compound, in the series with MDA-MB-231 cells [6], the “average percent of dead MDA-MB-231 cells” value is 6,87±0,44%. In the series with COLO 829 cells [7], the “average percent of dead COLO 829 cells” value is given as 8,26±0,38%.
